Source: PubChem BioAssay AID651549 (Sanford-Burnham Center for Chemical Genomics, 2012)
Activity calls are given as the source filed them.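 How the source made its calls: active means compounds blocking the PEG3 reporter with IC50 up to 10 µM at either incubation, yet sparing the GAPDH control reporter; inactive means the rest.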

Assay: GAPDH and PEG-3 promoter luciferase suppression – cell-based, luminescence, set 2, counter-screen for PEG-3 promoter inhibitor project, dose response (AID 651549)
Conditions: HeLa PEG-Prom-luciferase or GAPDH-reporter, 6/24 h

Row | SMILES | IC50 (GAPDH, run 1, 6 h) | IC50 (GAPDH, run 1, 24 h) | IC50 (PEG-3, run 1, 6 h) | IC50 (PEG-3, run 1, 24 h)
1 | Cc1c(/C(O)=C2/C(=O)C(=O)N(Cc3cccnc3)C2c2ccccn2)cnn1-c1ccccc1 (configuration not stated) | 1.01 µM | 1.92 µM | 1.58 µM | 5.27 µM
2 | COCCn1c(C)cc(C(=O)COc2ccc(C)nc2[N+](=O)[O-])c1C | inactive | inactive | inactive | inactive
3 | CC(C)(C)c1ccc(Cn2c(=O)cnc3ccccc32)cc1 | 6 µM | 6.64 µM | 3.47 µM | inactive
4 | Cc1ccc(-c2cn3nc(C)c(C)nc3n2)cc1 | inactive | > 99 µM (inactive) | inactive | > 99 µM (inactive)
5 | COc1ccc(Nc2ncnc3ccc(Br)cc23)c(OC)c1 | 1.16 µM | 1.68 µM | 1.05 µM | 0.798 µM
6 | COc1cc2nc(CN3CC=C(c4ccccc4)CC3)[nH]c(=O)c2cc1OC | inactive | inactive | inactive | inactive
7 | COC(=O)C1=C(CN2CCCc3ccccc32)NC(=O)NC1c1ccc(F)cc1 (configuration not stated) | 1.39 µM | 0.789 µM | 0.625 µM | 0.681 µM
8 | CC1CC(C)C(=O)C(C(CC2CC(=O)NC(=O)C2)OC(=O)CC(=O)c2ccccc2)C1 (configuration not stated) | 1.36 µM | 7.25 µM | 5.46 µM | inactive
9 | O=C(O)c1ccc2nc(-c3ccccc3)sc2c1 | 6.04 µM | 0.72 µM | 7.05 µM | 7.03 µM
10 | O=C(NCC1CCCO1)C(c1ccc(F)cc1)N(C(=O)Cn1nnc(-c2ccc(F)cc2)n1)c1cccc(O)c1 (configuration not stated) | inactive | inactive | > 99 µM (inactive) | inactive
11 | Cc1cc(C)cc(NS(=O)(=O)c2ccc3c(c2)c(=O)n(C)c(=O)n3C)c1 | inactive | 1.85 µM | > 99 µM (inactive) | 4.62 µM
12 | CC(=O)c1sc2c(c1OC(=O)c1ccc(Cl)cc1Cl)c(=O)n(-c1ccccc1)c(=S)n2-c1ccccc1 | 0.853 µM | 0.766 µM | > 99 µM (inactive) | 5.59 µM
13 | O=C(c1ccco1)N1CCN(C(c2ccccc2Cl)c2nnnn2Cc2cccs2)CC1 (configuration not stated) | inactive | inactive | > 99 µM (inactive) | inactive
14 | Cc1cc2cc(CCNC(=O)C(=O)c3c[nH]c4ccccc34)c(=O)[nH]c2cc1C | inactive | 4.9 µM | > 99 µM (inactive) | 7.83 µM
15 | Cc1ccc2nc(NC(=O)CSCC(=O)OCC(=O)c3ccccc3)sc2c1 | inactive | 5.63 µM | inactive | inactive
16 | Cn1c(Cl)cnc1C1CC(=O)c2cc(Cl)ccc2O1 (configuration not stated) | inactive | 9.11 µM | inactive | inactive
17 | C[C@]12CC[C@H]3C(CCC4(O)CC(O)CC[C@]34C=O)C1=CC[C@H]2c1ccc(=O)oc1 (some centres not stated) | 3.59 µM | inactive | 1.52 µM | 7.64 µM
18 | CCn1cc(C(=O)NCc2ccco2)c(=O)c2cc(S(=O)(=O)N3CC(C)CC(C)C3)ccc21 (configuration not stated) | inactive | 2.7 µM | > 99 µM (inactive) | 2.63 µM
19 | COc1ccc(-n2cc(-c3ccccc3)c3c(N4CCOCC4)ncnc32)cc1 | inactive | 2.98 µM | inactive | inactive
20 | CCC(c1nnnn1-c1ccc2c(c1)OCCO2)N1CCC(n2c(=O)[nH]c3ccccc32)CC1 (configuration not stated) | inactive | 4.01 µM | inactive | inactive
21 | CCCCCCCn1c(=N)n(CC(=O)c2ccco2)c2ccccc21 | inactive | inactive | inactive | inactive
22 | O=C(Nc1ccccc1C(=O)Nc1nnc(C(F)(F)F)s1)c1ccccc1 | 1.41 µM | 7.02 µM | > 99 µM (inactive) | inactive
23 | CCCn1nc(C(=O)Nc2nc(-c3ccccn3)cs2)c2ccccc2c1=O | inactive | inactive | > 99 µM (inactive) | > 99 µM (inactive)
24 | Cc1cc(C)cc(NS(=O)(=O)c2ccc3[nH]cc(C(=O)NCc4ccco4)c(=O)c3c2)c1 | inactive | 2.43 µM | > 99 µM (inactive) | 5.44 µM
25 | Nc1ncn([C@@H]2O[C@H](CO)[C@@H](O)[C@H]2O)c(=O)n1 | 2.73 µM | 0.557 µM | inactive | inactive
26 | CC(CCc1ccccc1)NC(=O)COC(=O)c1ccc(S(C)(=O)=O)c([N+](=O)[O-])c1 (configuration not stated) | inactive | inactive | inactive | 9.86 µM
27 | CS(=O)(=O)c1ccc(-c2cn3cc(C(=O)O)ccc3n2)cc1 | inactive | 3.4 µM | inactive | inactive

Row | SMILES | IC50 (GAPDH, run 1, 6 h) | IC50 (GAPDH, run 1, 24 h) | IC50 (PEG-3, run 1, 6 h) | IC50 (PEG-3, run 1, 24 h)
28 | CCOC(=O)c1ccc2nc(Nc3nc4ccc(F)cc4s3)sc2c1 | > 99 µM (inactive) | > 99 µM (inactive) | 0.31 µM | < 1 µM
29 | CC(=O)OC1(C)CC(C)C(=O)C(C(O)CC2CC(=O)NC(=O)C2)C1 (configuration not stated) | < 1 µM | < 1 µM | < 1 µM | 0.353 µM
30 | CCc1ccn2cc(-c3ccc4c(c3)OCO4)nc2c1 | 2.23 µM | inactive | 2.12 µM | 5.02 µM
31 | CS(=O)(=O)c1ccc(-c2sc3ccccc3c2C#CCCO)cc1 | inactive | inactive | inactive | inactive
32 | CCC1(O)C(=O)OCc2c1cc1n(c2=O)Cc2cc3cc(O)ccc3nc2-1 (configuration not stated) | 3.1 µM | 4.36 µM | 3.1 µM | 9.31 µM
33 | CC1CCN(c2nc3ccc(C(=O)O)cc3s2)CC1 | 1.93 µM | 2.14 µM | 1.01 µM | 1.51 µM
34 | O=C(O)c1ccc(Nc2nc3c(s2)CCCC3)cc1 | 8.49 µM | 9.1 µM | inactive | inactive
35 | CCSc1nc2ccccc2n1C(=O)/C=C\c1ccc(OC)c(OC)c1 | 6.8 µM | 5.39 µM | 6.76 µM | 6.91 µM
36 | CN1OC[C@@H]2CN(S(=O)(=O)c3cccc(C(F)(F)F)c3)[C@H](c3ccc(-c4cc5ccccc5o4)cc3)C[C@@H]21 | inactive | 6.66 µM | inactive | inactive
37 | Cc1c(CN2CCC(CO)(CCOc3ccccc3)CC2)[nH]c2c(Cl)cccc12 | inactive | inactive | inactive | inactive
38 | Cc1nc2c(-c3ccc(Cl)cc3)c(C)[nH]n2c(=O)c1Cc1ccccc1 | inactive | 1.74 µM | > 99 µM (inactive) | 2.21 µM
39 | CC(C)(C)c1ccc(Oc2ccc(N)cc2)cc1 | 6.12 µM | 5.35 µM | 6.09 µM | 6.51 µM
40 | CS(=O)(=O)Nc1cccc(NC(=O)C2Cc3c(-c4ccccc4)ccnc3O2)c1 (configuration not stated) | > 99 µM (inactive) | 4.26 µM | > 99 µM (inactive) | 5.57 µM
41 | COc1ccc2[nH]c(=O)c(CN(Cc3cccnc3)S(=O)(=O)c3ccccc3F)cc2c1 | inactive | 5.38 µM | > 99 µM (inactive) | inactive
42 | Cc1cccc(-n2cc(-c3ccccc3)c3c(N4CCOCC4)ncnc32)c1 | > 99 µM (inactive) | inactive | > 99 µM (inactive) | inactive
43 | CCC(C)(C)c1ccc(Oc2ccc(N)cc2)cc1 | 5.21 µM | 0.566 µM | 7.48 µM | 7.31 µM
44 | C=CCn1c(C)cc(C(=O)COc2ccc(C)nc2[N+](=O)[O-])c1C | 8.44 µM | inactive | 9.65 µM | 3.38 µM
45 | CCOc1ccc(-n2cc(-c3ccccc3)c3c(N4CCOCC4)ncnc32)cc1 | > 99 µM (inactive) | > 99 µM (inactive) | > 99 µM (inactive) | > 99 µM (inactive)
46 | Cc1oc(-c2ccc3c(c2)OCCO3)cc1C(=O)O | 4.9 µM | 7.36 µM | 7.66 µM | inactive
47 | Cc1cccc(NC(=O)c2nc(S(=O)(=O)Cc3ccccc3)ncc2Cl)c1 | 8.24 µM | 7.13 µM | inactive | inactive
48 | O=C(COc1ccc2c(c1)CCC2)Nc1ccccn1 | 2.7 µM | 1.82 µM | 2.41 µM | 5.02 µM
49 | COC1CC(C)C(OC)c2cc(O)cc(c2O)NC(=O)C(C)=CC=CC(C)C(OC(N)=O)C(C)=CC(C)C1OC (configuration not stated) | inactive | inactive | inactive | inactive
50 | O=C(O)CSCC(=O)Nc1ccc(C2CCCCC2)cc1 | 5.37 µM | 0.307 µM | 5.56 µM | 4.57 µM
51 | CC(=O)OC1CC[C@]2(C#N)[C@H]3CC[C@]4(C)[C@H](C5C=CC(=O)O5)CCC4(O)C3CCC2(O)C1 (some centres not stated) | 6.51 µM | inactive | 1.6 µM | inactive
52 | COc1ccc(CC2C(=O)NC(C)C(=O)N(C)C3C(=O)N(C)C(Cc4ccc(O)c(c4)Oc4ccc(cc4)C3O)C(=O)NC(C)C(=O)NC(C)C(=O)N2C)cc1 (configuration not stated) | < 1 µM | < 1 µM | < 1 µM | < 1 µM
53 | NS(=O)(=O)c1ccc(CCNc2nn3c(-c4ccc(F)c(Cl)c4)cnc3s2)cc1 | inactive | 2.38 µM | inactive | 2.99 µM
